{"source": "BindingDB's records for patent US11787796", "about": "(Takeda Pharmaceutical, 2023)", "target": "Plasma kallikrein (Homo sapiens, UniProt P03952)", "sequence (P03952 20-390 limits assumed)": "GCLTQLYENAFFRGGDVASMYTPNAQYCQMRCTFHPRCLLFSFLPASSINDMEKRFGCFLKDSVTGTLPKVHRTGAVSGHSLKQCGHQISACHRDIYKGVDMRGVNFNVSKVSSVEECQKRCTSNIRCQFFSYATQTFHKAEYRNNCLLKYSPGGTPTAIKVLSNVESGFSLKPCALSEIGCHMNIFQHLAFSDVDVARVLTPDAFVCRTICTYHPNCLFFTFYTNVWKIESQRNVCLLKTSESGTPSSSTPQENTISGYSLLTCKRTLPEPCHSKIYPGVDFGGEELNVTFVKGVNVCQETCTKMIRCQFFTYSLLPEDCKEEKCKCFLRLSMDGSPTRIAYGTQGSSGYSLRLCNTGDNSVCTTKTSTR", "sequence (P03952 391-638 limits assumed)": "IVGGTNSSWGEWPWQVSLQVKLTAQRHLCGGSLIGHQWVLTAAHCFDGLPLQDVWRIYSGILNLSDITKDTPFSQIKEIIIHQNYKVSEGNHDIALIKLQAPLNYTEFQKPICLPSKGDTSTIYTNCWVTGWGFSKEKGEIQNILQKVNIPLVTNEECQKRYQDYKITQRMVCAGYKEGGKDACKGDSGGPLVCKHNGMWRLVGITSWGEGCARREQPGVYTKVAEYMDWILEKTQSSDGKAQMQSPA", "experiment": "Inhibitory Activity of Exemplary Compounds Against Plasma Kallikrein", "method": "Example compounds were evaluated for inhibition of the human activated kallikrein enzyme in two formats of an assay employing a fluorogenic peptide substrate. In one assay format, the concentrations of reagents were as follows: 20 mM Tris pH 7.5, 1 mM EDTA, 150 mM sodium chloride, 0.1% PEG-400, 0.1% Triton X-100, […], 300 uM Pro-Phe-Arg-7-amido-4-methylcoumarin substrate. Prior to reaction initiation with substrate, enzyme and inhibitors were preincubated for 30 min at RT. After initiation with substrate, reactions were incubated for 10 min at RT and fluorescence emission at 460 nm from 380 nm excitation measured with a microplate reader. In another assay format, the concentrations of reagents were as follows: 20 mM Tris pH 7.5, 1 mM EDTA, 150 mM sodium chloride, 0.1% PEG-400, 0.1% Triton X-100, 5 pM activated kallikrein enzyme, 300 uM Pro-Phe-Arg-7-amido-4-methylcoumarin substrate. Prior to reaction initiation with substrate, enzyme and inhibitors were preincubated for 30 min at RT. After initiation with substrate, reactions were incubated for 18 h at RT and fluorescence emission at 460 nm from 380 nm excitation measured with a microplate reader."}
{"smiles": "COc1ccc(-n2cnnn2)c(CNC(=O)c2nnn(Cc3cn4cc(C5CC5)ccc4n3)n2)c1F", "note": "[US11787796, Compound I-28]", "values": [{"measurement": "EC50", "value": "< 1", "unit": "nM"}]}
